Here are results for four compounds from patent US20220072138A1, “NRTI THERAPIES” (THE UNIVERSITY OF LIVERPOOL, priority 2018, published 2022).

For series [1] the following is noted: primate; cited from earlier work.
The subject of series [2] is HIV. The conditions noted are these: cited from earlier work.
Series [3] deals with HIV. The conditions noted are these: in vivo; cited from earlier work.
Series [4] in a line: In vitro metabolism of FTC POP fragments in human skeletal muscle S9. The series is classed as in vitro ADME. Conditions: human skeletal muscle S9, 1 mM, 37° C. As to the method:
(§1) After incubation at 37° C., aliquots were taken at each time point and quenched in 2 volumes of Ice-cold methanol. The quenched aliquots were then centrifuged at 14000 rpm for 5 min. The supernatant was diluted 10-fold Into phosphate buffer (0.1 M, pH 7.4) and injected onto the HPLC for analysis (5% to 100% B over 8 minutes at a flow rate of 1 mL mi; solvent A: 50 mM Et3NHOAc, pH 8; solvent B: acetonitrile) and read spectrophotometrically monitoring a decrease in substrate peak area at 305 nm (23) or 280 nm (25) over time. Quantification of 23 at each time point to determine rate was achieved by converting peak areas to nmols using a standard curve (23). Quantification of 25 at each time point to determine rate was achieved by calculating nmols based on the percent of total peak area at 250 nm (25+26, 200 nmol total). Hydrolysis of 25 yields two molar equivalents of 1, determined by quantifying 1 using a standard curve following full conversion of 25 to 1.
Human S9-Skeletal Muscle (Bioreclamation IVT). Solution used for in vitro metabolism is a 50/50 mix of Male Human S9 (Bioreclamation IVT, Cat #S03517) and Female Human S9 (Bioreclamation IVT, Cat #S03518). Protein concentrations (mg/mL) were determined by averaging the concentrations provided by Bioreclamation.

Series [5] in a line: In vitro metabolism of FTC POP fragments in human liver S9. Type of series: in vitro ADME. The conditions noted are these: human liver S9, 1 mM, 37° C. As to the method:
as §1
Human Liver S9 Fraction-Pool of 50 (Sekuisi Xenotech, Product #HO610.59; 20 mg/mL stock)

Another series in a line: in vitro. The series is classed as in vitro ADME. The conditions noted are these: both sexes, human, plasma, pH 7.4. As for the experimental part:
as §1
Human Plasma (Bioreclamation IVT). Solution used for in vitro metabolism is a 50/50 mix of Human Plasma (Male) (Bioreclamation IVT, Cat #[…]2-M) and Human Plasma (Female) (Bioreclamation IVT, Cat #[…]2-F)

A short description of series [6]: Stability of carbamate 5 under model polymerization conditions. The series is classed as physicochemical. The conditions noted are these: CH2Cl2, 0.5 eq DMAP, 2 eq pyridine, RT. As to the method: Stability of compound 5 under polymerization conditions. Carbamate 5 is shown to release TAF in a time bond manner. To determine the stability of carbamate moiety under polymerization conditions and evaluate the utility of TAF phenyl carbamates, carbamate 5 was tested for its stability under model polymerization conditions. A solution of carbamate 5 in methylene chloride (CH2Cl2) was stirred with 0.5 molar equivalent of 4-Dimethylaminopyridine and 2 molar equivalents of pyridine at room temperature (RT, 22-25° C.) for 24 h. The portion of the reaction mixture was removed and dissolved in DMSO followed by analysis of the reaction mixture using HPLC to determine amount of TAF formed and carbamate 5 left after 24 h. Standard curve was used to determine that 20.5% TAF was formed after 24 hours, leaving 79.5% carbamate 5 intact (FIG. 23).

A short description of series [7]: Solubility of carbamate 5 in phosphate buffer. The series is classed as physicochemical. Conditions: 100 mM phosphate buffer pH 7.4 with 5% DMSO v/v. As for the experimental part:
Carbamate 5 was synthesized according to the process described above. Purity. The compound was dissolved in DMSO (100 μM) and injected on HPLC to determine purity of 95.1% at 269-270 nm. Standard Curve. Serial dilution of carbamate 5 in DMSO (100 μM to 0.78 μM) was done and each sample injected on HPLC. The UV absorbance at different concentrations was used to obtain a linear standard curve. The standard curve was used in determining solubility in buffers, kinetics of degradation at pH 7.4 and stability under polymerization conditions. Solubility. Carbamate 5 in DMSO was mixed with 100 mM phosphate buffer pH7.4 with varying amounts of DMSO (0.1% v/v, 0.5% v/v, 1% v/v and 5% v/v). The mixtures were centrifuged at 14000 rpm for 5 min and the supernatant injected on HPLC.

`C#C[C@]1(CO)O[C@@H](n2cnc3c(N)nc(F)nc32)C[C@@H]1O` [EFdA, 4′-ethynyl-2-fluoro-2′-deoxyadenosine]: in series [1], the “plasma t1/2” value was roughly 7 h. Further, the “predicted in vitro potency relative to TFV” value in the series on HIV [2] (higher than TFV) was roughly 8400 fold. Moreover, in the series on HIV [2] (read-out: in vitro IC50), the IC50 was roughly 0.2 nM. Moreover, the “viral suppression maintained after the last dose” value with HIV [3] is reported as no less than 7 days.
On to `O=C(Nc1nc(=O)n([C@@H]2CS[C@H](CO)O2)cc1F)OCCOCCOCCOC(=O)Nc1nc(=O)n([C@@H]2CS[C@H](CO)O2)cc1F` [Polymer 23, (ethane-1,2-diylbis(oxy))bis(ethane-2,1-diyl) bis((5-fluoro-1-((2R,5S)-2-(hydroxymethyl)-1,3-oxathiolan-5-yl)-2-oxo-1,2-dihydropyrimidin-4-yl)carbamate)], for which the “Muscle S9 initial rate (rate of disappearance of starting material)” value in series [4] was “*Non-linear trend”. Further, in series [5], the “Liver S9 initial rate (rate of disappearance of starting material)” value was determined as 0.6 ± 0.06 nmol/h/mg. This compound showed a half-life at 1 mM in “in vitro” of 13 ± 1.5 h.
For `Nc1nc(=O)n([C@@H]2CS[C@H](COC(=O)OCCOCCOCCOC(=O)OC[C@@H]3O[C@H](n4cc(F)c(N)nc4=O)CS3)O2)cc1F` [Polymer 25, bis(((2R,5S)-5-(4-amino-5-fluoro-2-oxopyrimidin-1(2H)-yl)-1,3-oxathiolan-2-yl)methyl) ((ethane-1,2-diylbis(oxy))bis(ethane-2,1-diyl)) bis(carbonate)], in that order: 3.7 ± 0.4 nmol/h/mg, 1014 ± 86 nmol/h/mg and 0.45 ± 0.02 h.
For the compound “N-(2,4,6-trimethylphenyl)-tenofovir alafenamide carbamate [carbamate 5]”, in series [6], the “TAF formed after 24 hours” value is 20.5% and the “carbamate 5 left intact after 24 hours” value amounted to 79.5%. Further, the “solubility (achievable concentration)” value in series [7] stood at 111.2 µM.

One may read the IC50 as the concentration that gives 50% inhibition. As a reminder, the half-life is the time in which the quantity being followed falls by half.
